This note sets out measurements from patent US6562789B2, “Histidine derivatives, preparation process, and their use as free antiradical agents” (L'Oreal S.A., priority 1996, dated 2003).

A short description of data set [1]: anti-singlet-oxygen activity: deactivation of singlet oxygen, luminescence at 1270 nm, Stern-Volmer type analysis. The settings on record: for (kr + kq), sum of the rate constants for the chemical reaction and for the physical inhibition of singlet oxygen: singlet oxygen generated by irradiating Ru(bipy)3Cl at 437 nm in deuterated methanol, luminescence at 1270 nm. The format is physicochemical. From the text: The anti-singlet-oxygen activity of the compound of Example 1 was compared with that of N-octanoyl-β-alanyl-L-histidine (referred to as compound A) of the prior art, according to the following principle, which is also described in Pure & Appl. Chem., vol. 62, No. 8, 1467-1476 (1990).
In all the experiments, singlet oxygen was generated by irradiating at 437 nm Ru(bipy)3Cl (tris(2,2′-bipyridyl)ruthenium chloride hexahydrate) dissolved in deuterated methanol.
The sum of the physical inhibition constants (kq) and chemical reaction constants (kr) of singlet oxygen with the test compounds was determined.
The results for the deactivation of singlet oxygen can be analysed by measuring the luminescence (infrared emission) of singlet oxygen at 1270 nm, and by monitoring the kinetics of disappearance of oxygen.
The exploitation of the results is based on the Stern-Volmer type analysis principle: the signal obtained is measured in the absence (So) and in the presence (S) of the test compound, at various concentrations in the solution. The ratio So/S makes it possible to determine the value of (kr+kq) according to the following relationship:
[P] denotes the concentration of test compound in the solution, φo denotes the quantic yield of the emission in the absence of compound, φ denotes the quantic yield of the emission in the presence of compound, τo denotes the lifetime of singlet oxygen in deuterated methanol (270 μs), kr+kq denotes the sum of the rate constants for the chemical reaction and for the physical inhibition of singlet oxygen.

Structures are written as SMILES.

`CCCCCCCC(=O)NCCC(=O)N[C@@H](Cc1c[nH]cn1)C(=O)O` [Compound A, N-octanoyl-β-alanyl-L-histidine, reference compound]: the “(kr + kq), sum of the rate constants for the chemical reaction and for the physical inhibition of singlet oxygen” value in data set [1] is recorded as 7.4 × 10^5 ± 0.4 1.mol^−1.s^−1.

In turn, `CCCCCCCCOC(=O)NCCC(=O)N[C@@H](Cc1c[nH]cn1)C(=O)O` [Example 1, N-octyloxycarbonyl-β-alanyl-L-histidine] yielded a melting point of 188 to 190 °C. Besides, in data set [1] (comparison of (kr+kq) in deuterated methanol), the “anti-singlet-oxygen activity compared with compound A of the prior art” value was “significantly higher anti-singlet-oxygen activity”. The “(kr + kq), sum of the rate constants for the chemical reaction and for the physical inhibition of singlet oxygen” value in data set [1] is on record as 8.8 × 10^6 ± 0.3 1.mol^−1.s^−1. With `CCCCCCCCCCCCOC(=O)NCCC(=O)N[C@@H](Cc1c[nH]cn1)C(=O)O` [Example 2, N-dodecyloxycarbonyl-β-alanyl-L-histidine], the melting point is 168 to 172 °C.
